This note sets out measurements from patent publication US5891877A, “Pharmaceutical compounds” (Xenova Limited, priority 1996, dated 1999).

The target in this assay is PAI-1 (Homo sapiens, UniProt P05121). The assay is described as follows: PAI-1 inhibition in the S2251 chromogenic substrate assay (PAI functional assay). The class given is biochemical. Conditions: for INHIBITION OF PAI-1 (degree of inhibition): Table 1, first part, unit assumed. How it is done:
In this assay, a compound is incubated with PAI-1 prior to addition to the tPA assay system. Inhibition of PAI-1 results in the production of plasmin from plasminogen. […]
Compounds of formula (A) were tested in a PAI chromogenic substrate assay. […] In turn, the plasmin cleaved the chromogenic substrate S2251 (Kabi-Vitrum) producing pNA (p-nitroaniline) which was detected scectrophotometrically at 405 nm.

Molecules are shown by their SMILES. Counter-ions that a name gives are not always drawn.

Sequence of PAI-1 (P05121 24-402): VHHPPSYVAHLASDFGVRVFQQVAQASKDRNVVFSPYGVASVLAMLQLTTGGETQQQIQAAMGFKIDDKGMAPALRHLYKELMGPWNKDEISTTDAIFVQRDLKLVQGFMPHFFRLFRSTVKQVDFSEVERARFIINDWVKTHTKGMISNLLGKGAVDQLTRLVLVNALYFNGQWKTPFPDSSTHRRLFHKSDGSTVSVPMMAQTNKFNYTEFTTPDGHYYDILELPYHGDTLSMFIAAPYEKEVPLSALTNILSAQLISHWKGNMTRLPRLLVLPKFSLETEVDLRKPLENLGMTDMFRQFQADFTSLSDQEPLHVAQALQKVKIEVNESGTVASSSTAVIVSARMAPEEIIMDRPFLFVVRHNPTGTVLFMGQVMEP

Consider `O=c1[nH]/c(=C\C2CCCCC2)c(=O)[nH]/c1=C\c1ccccc1` [Compound 1884, (3Z,6Z)-3-Benzylidene-6-cyclohexylmethylene-2,5-piperazinedione], for which the INHIBITION OF PAI-1 (degree of inhibition) by setting is: (6.25 μm) 0%; (12.5 μm) 0%; (25 μm) 0%; (50 μm) 14%; (100 μm) 40%.

As for `COc1ccc(/C=c2\[nH]c(=O)/c(=C/c3ccc(OC(=O)CN4C(=O)c5ccccc5C4=O)cc3)[nH]c2=O)cc1` [Compound 1886, (3Z,6Z)-3-(4-Methoxybenzylidene)-6-(4-phthalimidoacetoxybenzylidene)-2,5-piperazinedione], the INHIBITION OF PAI-1 (degree of inhibition) is 0% (6.25 μm); 6% (12.5 μm); 18% (25 μm); 40% (50 μm); 42% (100 μm).

Regarding `CCOC(OCC)c1ccc(/C=c2\[nH]c(=O)/c(=C/c3ccccc3)[nH]c2=O)cc1` [Compound 1891], the INHIBITION OF PAI-1 (degree of inhibition) (6.25 μm) amounted to 3%; the INHIBITION OF PAI-1 (degree of inhibition) (12.5 μm) was 3%; the INHIBITION OF PAI-1 (degree of inhibition) (25 μm) was determined as 17%; the INHIBITION OF PAI-1 (degree of inhibition) (50 μm) was 36%; the INHIBITION OF PAI-1 (degree of inhibition) (100 μm) came to 28%.

With `O=c1[nH]/c(=C\c2ccc(OCCn3ccnc3)cc2)c(=O)[nH]/c1=C\c1ccccc1` [Compound 1910, (3Z,6Z)-3-Benzylidene-6-(4-(2-imidazolylethoxy)benzylidene)-2,5-piperazinedione], the INHIBITION OF PAI-1 (degree of inhibition) is 63% (6.25 μm); 61% (12.5 μm); 50% (25 μm); 36% (50 μm); 27% (100 μm). For the same compound, the IC50 (PAI-1, S2251 assay, Table 2) lay in the range of 5 to 10 µM.

For the compound `CN(C)c1ccc(C=C/C=c2\[nH]c(=O)/c(=C/c3ccccc3)[nH]c2=O)cc1` [Compound 1921, (3Z,6Z)-3-Benzylidene-6-(4-dimethylaminocinnamylidene)-2,5-piperazinedione], the INHIBITION OF PAI-1 (degree of inhibition) turned out to be 16% (6.25 μm); 14% (12.5 μm); 25% (25 μm); 43% (50 μm); 65% (100 μm).

In the case of `O=c1[nH]/c(=C\c2ccccc2)c(=O)[nH]/c1=C\C=C(c1ccccc1)c1ccccc1` [Compound 1922, (3Z,6Z)-3-Benzylidene-6-(γ-phenylcinnamylidene)-2,5-piperazinedione], the INHIBITION OF PAI-1 (degree of inhibition) came out at 14% (6.25 μm); 13% (12.5 μm); 26% (25 μm); 11% (50 μm); 13% (100 μm).

Turning to `O=c1[nH]/c(=C\c2ccccc2)c(=O)[nH]/c1=C\C=Cc1ccc([N+](=O)[O-])cc1` [Compound 1923], the INHIBITION OF PAI-1 (degree of inhibition) turned out to be 13% (6.25 μm); 12% (12.5 μm); 20% (25 μm); 31% (50 μm); 38% (100 μm).

Turning to `O=c1[nH]/c(=C\c2c[nH]cn2)c(=O)[nH]/c1=C\c1ccccc1` [Compound 1926, (3Z,6Z)-3-Benzylidene-6-(4-imidazolyl)methylene-2,5-piperazinedione], the INHIBITION OF PAI-1 (degree of inhibition) by setting is: (6.25 μm) 10%; (12.5 μm) 6%; (25 μm) 12%; (50 μm) 35%; (100 μm) 36%.

As for `Cc1[nH]cnc1/C=c1\[nH]c(=O)/c(=C/c2ccccc2)[nH]c1=O` [Compound 1927, (3Z,6Z)-3-Benzylidene-6-(4-(5-methylimidazolyl))methylene-2,5-piperazinedione], the INHIBITION OF PAI-1 (degree of inhibition) was 14% (6.25 μm); 22% (12.5 μm); 20% (25 μm); 39% (50 μm); 33% (100 μm).

Regarding `O=c1[nH]/c(=C\c2ccc(Cn3ccnc3)cc2)c(=O)[nH]/c1=C\c1ccccc1` [Compound 1929, (3Z,6Z)-3-Benzylidene-6-(4-(1-imidazolylmethyl)benzylidene)-2,5-piperazinedione], the INHIBITION OF PAI-1 (degree of inhibition) reads like this: (6.25 μm) 16%; (12.5 μm) 48%; (25 μm) 59%; (50 μm) 45%; (100 μm) 27%.

As for `O=c1[nH]/c(=C\c2ccc(-n3ccnc3)cc2)c(=O)[nH]/c1=C\c1ccccc1` [Compound 1930], the INHIBITION OF PAI-1 (degree of inhibition) was found to be 30% (6.25 μm); 38% (12.5 μm); 79% (25 μm); 61% (50 μm); 54% (100 μm).

In the case of `COc1cc(C=C/C=c2\[nH]c(=O)/c(=C/c3ccccc3)[nH]c2=O)ccc1OCCN(C)C` [Compound 1950, (3Z,6Z)-3-Benzylidene-6-(4-(2-dimethylaminoethoxy)-3-methoxycinnamylidene)-2,5-piperazinedione], the INHIBITION OF PAI-1 (degree of inhibition) turned out to be 1% (6.25 μm); 2% (12.5 μm); 2% (25 μm); 3% (50 μm); 19% (100 μm).

On to `COc1cc(/C=c2\[nH]c(=O)/c(=C/c3ccccc3)[nH]c2=O)ccc1OCCN(C)C` [Compound 1959, (3Z,6Z)-3,Benzylidene-6-(4-(2-dimethylaminoethoxy)-3-methoxybenzylidene)-2,5-piperazinedione hydrochloride], for which the INHIBITION OF PAI-1 (degree of inhibition) is, setting by setting: (6.25 μm) 1%; (12.5 μm) 2%; (25 μm) 2%; (50 μm) 1%; (100 μm) 5%.

For the compound `CN(C)CCCOc1ccc(/C=c2\[nH]c(=O)/c(=C/c3ccc(Cn4ccnc4)cc3)[nH]c2=O)cc1` [Compound 1975, (3Z,6Z)-3-(4-(3-Dimethylaminopropoxy)benzylidene)-6-(4-(1-imidazolylmethyl)benzylidene)-2,5-piperazinedione], the INHIBITION OF PAI-1 (degree of inhibition) reads like this: (6.25 μm) 0%; (12.5 μm) 0%; (25 μm) 0%; (50 μm) 0%; (100 μm) 7%.

For the compound `CN(C)CCCOc1ccc(/C=c2\[nH]c(=O)/c(=C/c3ccc(-n4ccnc4)cc3)[nH]c2=O)cc1` [Compound 1976], the INHIBITION OF PAI-1 (degree of inhibition) runs as follows: (6.25 μm) 0%; (12.5 μm) 0%; (25 μm) 0%; (50 μm) 0%; (100 μm) 3%.
